These results are taken from publication PMC6792352, “Limited Chemical Structural Diversity Found to Modulate Thyroid Hormone Receptor in the Tox21 Chemical Library” (Environmental Health Perspectives, 2019).

Each structure is given as a SMILES string. Where a name gives a salt, the structure may show the parent alone.

One may read the CC50 as the concentration giving 50% cytotoxicity.

This series in a line: in vitro. The settings on record: rat, gh3-tre-luc cells.

`CCN(CC)CCOc1ccccc1C(=O)CCc1ccccc1` [Etafenone] displayed a CC50 at 24 h (AC50 (uM) modified / 1000) of 18.1 µM. On to `Nc1cccc(S(=O)(=O)c2cccc(N)c2)c1` [3,3'-Sulphonyldianiline], for which, under “AC50 (uM) modified / 1000”, the CC50 at 24 h was above 90 µM. On the same count and under the same terms, the same measure for `CN1CCN=C(c2ccccc2)c2cc(Cl)ccc21` [Medazepam]: above 50 µM; for `CC(C)(C)NCC(O)CSc1nc(-c2ccc(C(N)=O)s2)cs1` (stereo not shown) [Arotinolol hydrochloride]: above 50 µM; for `CCCCCCCCN1CCCC1=O` [1-Octyl-2-pyrrolidone]: above 90 µM. The same measure, in the same setting: the same measure for `Clc1cccc(Cl)c1` [1,3-Dichlorobenzene]: above 90 µM; for `Nc1cc(C(=O)O)c(O)c(S(=O)(=O)O)c1` [5-Amino-3-sulfosalicylic acid]: above 90 µM; for `CCC1(c2ccccc2)C(=O)NCNC1=O` [Primidone]: above 90 µM.

For the setting “AC50 (uM) modified / 1000”, `CCCC(CCC)C(=O)O` [Valproic acid] registered a CC50 at 24 h above 90 µM. In the case of `O=C(NO)c1ccccc1` [N-Hydroxybenzamide], the CC50 at 24 h (AC50 (uM) modified / 1000) is above 90 µM.

`CN1C[C@H](C(=O)N[C@]2(C)O[C@@]3(O)[C@@H]4CCCN4C(=O)[C@H](Cc4ccccc4)N3C2=O)C=C2c3cccc4[nH]cc(c34)C[C@H]21` [Ergotamine D-tartrate]: the CC50 at 24 h is, setting by setting: (AC50 (uM) modified / 1000, Tox21_110001=Tox21_111183, viability, 1 nM T3 present, 24 h) above 50 µM; (AC50 (uM) modified / 1000, Tox21_110001=Tox21_201705, viability, 1 nM T3 present, 24 h) above 90 µM; (AC50 (uM) modified / 1000, Tox21_110001=Tox21_303182, viability, 1 nM T3 present, 24 h) above 40 µM. `CNC(=S)N(C)C` [1,1,3-Trimethyl-2-thiourea] yielded a CC50 at 24 h (AC50 (uM) modified / 1000) above 90 µM. Still for that read-out and setting: for `N#Cc1ccccc1` [Benzonitrile] the value was above 90 µM. As for `CCCCOC(=O)CC` [Butyl propionate], the CC50 at 24 h (AC50 (uM) modified / 1000) was above 90 µM. For `CCOC(=O)C1OC1(C)c1ccccc1` (stereo not shown) [Ethyl methylphenylglycidate], the CC50 at 24 h (AC50 (uM) modified / 1000, Tox21_110001=Tox21_201315, viability, 1 nM T3 present, 24 h) was above 90 µM. `O=C(O)c1cn(-c2ccc(F)cc2)c2cc(N3CCNCC3)c(F)cc2c1=O` [Sarafloxacin hydrochloride] yielded a CC50 at 24 h (AC50 (uM) modified / 1000) above 50 µM.

Compound `CCCCCCOCCOCCO` [2-[2-(Hexyloxy)ethoxy]ethanol] gave a CC50 at 24 h (AC50 (uM) modified / 1000) above 90 µM. `COc1ccc([C@@H]2CC(=O)c3c(O)cc(O[C@@H]4O[C@H](CO[C@@H]5O[C@@H](C)[C@H](O)[C@@H](O)[C@H]5O)[C@@H](O)[C@H](O)[C@H]4O)cc3O2)cc1O` [Hesperidin]: the CC50 at 24 h (AC50 (uM) modified / 1000) is above 20 µM. The same measure, in the same setting: for `COCCOC(=O)CC#N` [2-Methoxyethyl cyanoacetate] the value was above 90 µM; for `CCC(C)c1cccc(C(C)CC)c1O` (stereo not shown) [2,6-Di(butan-2-yl)phenol], 72.2 µM; for `Clc1ccccc1Cl` [1,2-Dichlorobenzene], above 90 µM. Same read-out and setting: the same measure for `ClC(Cl)(Cl)c1ccc(C(Cl)(Cl)Cl)cc1` [1,4-Bis(trichloromethyl)benzene]: above 90 µM. On the same count and under the same terms, the same measure for `O=C(O)Cc1ccc(OCCNC[C@H](O)c2ccccc2)cc1` [ZD 2079]: above 50 µM.

As to `CCOCC(C)O` (stereo not shown) [1-Ethoxy-2-propanol], the CC50 at 24 h (AC50 (uM) modified / 1000) was above 90 µM.

The compound `Cc1ccc2c(c1)c1c3n2CCNC3CCC1` (stereo not shown) [Pirlindole mesylate] came in with a CC50 at 24 h (AC50 (uM) modified / 1000) of 9.12 µM.

Consider `CCCCOCCOC(=O)COc1nc(Cl)c(Cl)cc1Cl` [Triclopyr butotyl], for which the CC50 at 24 h (AC50 (uM) modified / 1000) was above 90 µM. Still for that read-out and setting: for `Cc1cc2nc3c(=O)[nH]c(=O)nc-3n(C[C@H](O)[C@H](O)[C@H](O)COP(=O)(O)OP(=O)(O)OC[C@H]3O[C@@H](n4cnc5c(N)ncnc54)[C@H](O)[C@@H]3O)c2cc1C` [Flavin adenine dinucleotide disodium] the value was above 50 µM. In the case of `O=P(O)(O)c1ccccc1` [Phenylphosphonic acid], the CC50 at 24 h (AC50 (uM) modified / 1000, Tox21_110001=Tox21_302060, viability, 1 nM T3 present, 24 h) was above 90 µM. Under “AC50 (uM) modified / 1000”, `OC(Cn1cncn1)(c1ccc(F)cc1)c1ccccc1F` (stereo not shown) [Flutriafol] gave a cytotoxic concentration (CC50) at 24 h above 90 µM. On to `NC(=O)c1cnccn1` [Pyrazinamide], for which, under “AC50 (uM) modified / 1000”, the CC50 at 24 h was above 90 µM. The same measure, in the same setting: for `COC(=O)/C=C/C(C)=C\C=C\C(C)=C\C=C\C=C(C)\C=C\C=C(C)\C=C\C(=O)O` [Bixin] the value was above 90 µM.

Where the note is “AC50 (uM) modified / 1000”, `CCCCC/C=C/C/C=C/CCCCCCCC(=O)OCC` [Ethyl linoleate] had a CC50 at 24 h above 50 µM. The same measure, in the same setting: the same measure for `CC(O)CN` (stereo not shown) [1-Amino-2-propanol]: above 90 µM; for `C#CCN1C(=O)COc2cc(F)c(N3C(=O)C4=C(CCCC4)C3=O)cc21` [Flumioxazin]: above 90 µM. In turn, `CC(C)CCC(=O)O[C@H]1CC[C@H]2[C@@H]3CCC4=CC(=O)CC[C@]4(C)[C@H]3CC[C@]12C` [Testosterone isocaproate] returned a CC50 at 24 h (AC50 (uM) modified / 1000, Tox21_110001=Tox21_112669, viability, 1 nM T3 present, 24 h) of 35.3 µM. In turn, `Cc1c(C(=O)c2c[nH]n(C)c2=O)ccc(S(C)(=O)=O)c1C1=NOCC1` [Topramezone] registered a CC50 at 24 h (AC50 (uM) modified / 1000) above 40 µM. For the setting “AC50 (uM) modified / 1000, Tox21_110001=Tox21_201053, viability, 1 nM T3 present, 24 h”, `CCOC(=O)CCl` [Ethyl chloroacetate] returned a cytotoxic concentration (CC50) at 24 h above 90 µM.

In turn, `CCCOC(=O)CC` [Propyl propionate] yielded a CC50 at 24 h (AC50 (uM) modified / 1000) above 90 µM. Under “AC50 (uM) modified / 1000”, `Cc1c(C(=O)O)cccc1[N+](=O)[O-]` [2-Methyl-3-nitrobenzoic acid] came in with a CC50 at 24 h above 90 µM. The same measure, in the same setting: the same measure for `Cc1cc(C)cc([N+](=O)[O-])c1` [1,3-Dimethyl-5-nitrobenzene]: above 90 µM; for `CCCCCCCCCCCCCCCCCCCCCCO` [1-Docosanol]: above 50 µM; for `Cc1ncc([N+](=O)[O-])n1C` [1,2-Dimethyl-5-nitroimidazole]: above 90 µM.

Regarding `C=C(C)c1cccc(C(C)(C)N=C=O)c1` [1-(2-Isocyanatopropan-2-yl)-3-(prop-1-en-2-yl)benzene], the CC50 at 24 h (AC50 (uM) modified / 1000) was above 90 µM. Compound `CCC(=O)O[C@](Cc1ccccc1)(c1ccccc1)[C@H](C)CN(C)C` [(2S,3R)-(+)-4-(Dimethylamino)-3-methyl-1,2-diphenyl-2-butanol propionate hydrochloride] gave a CC50 at 24 h (AC50 (uM) modified / 1000, Tox21_110001=Tox21_112860, viability, 1 nM T3 present, 24 h) of 30.1 µM.

The compound `CCOP(=O)(SC(C)CC)N1CCSC1=O` (stereo not shown) [Fosthiazate] displayed a CC50 at 24 h (AC50 (uM) modified / 1000, Tox21_110001=Tox21_301059, viability, 1 nM T3 present, 24 h) above 90 µM. Under “AC50 (uM) modified / 1000”, `CO/N=C(\C(=O)N[C@@H]1C(=O)N2C(C(=O)O)=C(CSc3nnnn3C)CS[C@H]12)c1csc(N)n1` [Cefmenoxime hydrochloride] had a CC50 at 24 h above 50 µM. `COC(=O)c1ccccc1C` [Methyl 2-methylbenzoate]: for the setting “AC50 (uM) modified / 1000”, the CC50 at 24 h was above 90 µM.

In the case of `O=[N+]([O-])c1cc[n+]([O-])cc1` [4-Nitropyridine-1-oxide], the CC50 at 24 h (AC50 (uM) modified / 1000) is above 90 µM. Same read-out and setting: for `COc1cc(C)c(Cc2cnc(N)nc2N)cc1OC` [Ormetoprim] the value was above 50 µM.

`OCCCO` [1,3-Propanediol] showed a CC50 at 24 h (AC50 (uM) modified / 1000) above 200 µM.

For the compound `CCOC(=O)CC(C)=O` [Ethyl acetoacetate], under “AC50 (uM) modified / 1000”, the CC50 at 24 h was above 90 µM.

For the compound `Oc1ccc2c3c1O[C@H]1[C@@H](O)C=C[C@H]4[C@@H](C2)NCC[C@@]341` [Normorphine], the CC50 at 24 h (AC50 (uM) modified / 1000, Tox21_110001=Tox21_113540, viability, 1 nM T3 present, 24 h) was above 50 µM.

Take `CCCCOC(=O)c1ccccc1` [Butyl benzoate]: the CC50 at 24 h (AC50 (uM) modified / 1000) was above 90 µM. `CCC(=O)O[C@]1(c2ccccc2)CCN(C)C[C@H]1C` [Betaprodine] returned a CC50 at 24 h (AC50 (uM) modified / 1000, Tox21_110001=Tox21_112620, viability, 1 nM T3 present, 24 h) above 50 µM. On to `CCCCCCCCCCCCCC(=O)OC` [Methyl tetradecanoate], for which the CC50 at 24 h (AC50 (uM) modified / 1000) was above 90 µM. Where the note is “AC50 (uM) modified / 1000”, `O=C(Nc1ccccc1)Nc1ccnc(Cl)c1` [Forchlorfenuron] registered a CC50 at 24 h of 64.7 µM. As for `OC[C@@H](O)[C@H]1O[C@@H]2O[C@H](C(Cl)(Cl)Cl)O[C@@H]2[C@H]1O` [Chloralose], the CC50 at 24 h is above 50 µM (AC50 (uM) modified / 1000, Tox21_110001=Tox21_111708, viability, 1 nM T3 present, 24 h) and above 90 µM (AC50 (uM) modified / 1000, Tox21_110001=Tox21_201447, viability, 1 nM T3 present, 24 h). As for `CC1=C(/C=C/C(C)=C/C=C/C(C)=C/C(=O)Oc2c(C)c(C)c3c(c2C)CC[C@@](C)(CCC[C@H](C)CCC[C@H](C)CCCC(C)C)O3)C(C)(C)CCC1` [Tretinoin tocoferil], the CC50 at 24 h (AC50 (uM) modified / 1000) is above 50 µM.

`CN(C)c1cc(NC(=O)CNC(C)(C)C)c(O)c2c1C[C@H]1C[C@H]3[C@H](N(C)C)C(O)=C(C(N)=O)C(=O)[C@@]3(O)C(O)=C1C2=O` [Tigecycline] showed a CC50 at 24 h (AC50 (uM) modified / 1000) above 50 µM. The same measure, in the same setting: for `O=C1CCCCCCCCCCOCCCCO1` [12-Oxahexadecanolide] the value was above 90 µM. Still for that read-out and setting: for `CC1(C)CC(N)CC(C)(CN)C1` (stereo not shown) [Isophorone diamine] the value was above 90 µM. The same measure, in the same setting: for `CC1(C)CCC(NC(=O)[C@@H](N)CCC(=O)O)CC1` [Neboglamine] the value was above 50 µM; for `CCCCCOC(=O)COc1cc(N2C(=O)C3=C(CCCC3)C2=O)c(F)cc1Cl` [Flumiclorac-pentyl], above 90 µM.

`O=c1[nH]sc2ccccc12` [1,2-Benzisothiazolin-3-one]: the CC50 at 24 h (AC50 (uM) modified / 1000) is 5.86 µM. Regarding `CCN(CC)CCCC(C)Nc1c2ccc(Cl)cc2nc2ccc(OC)cc12` (stereo not shown) [Quinacrine dihydrochloride dihydrate], the CC50 at 24 h (AC50 (uM) modified / 1000) is above 50 µM. On the same count and under the same terms, for `O=C(Nc1ccccc1)c1ccccc1O` [Salicylanilide] the value was above 90 µM; for `CN(C)CCN(C)CCN(C)C` [1,1,4,7,7-Pentamethyldiethylenetriamine], above 90 µM.
